Assay results from patent US20220062319A1, “COMBINATION IN THE TREATMENT OF NONTUBERCULOUS MYCOBACTERIAL DISEASES” (priority 2019, published 2022).
In brackets after ≈: the same amount, converted by molar mass. Like-named read-outs stand apart in the source and are kept apart here.

Columns and labels:
M. fortuitum = assay: Bedaquiline MIC, M. fortuitum; assay type: cell-based
Mycobacterium avium = assay: REMA MIC and MBC, M. avium; assay type: cell-based; conditions: M. avium clinical isolates (×4), one line per isolate; for MIC: REMA
Mycobacterium kansasii = assay: REMA MIC and MBC, M. kansasii; assay type: cell-based
[1] = test system: M. avium/M. intracellulare (MAC); assay: Bedaquiline MIC, MAC; assay type: cell-based
M. kansasii = assay: Bedaquiline MIC, M. kansasii; assay type: cell-based; conditions: Mycobacterium kansasii, n=1, read-out: MIC Median
[2] = test system: NTM clinical isolates (slow grower mycobacteria); assay: MBC determination, NTM clinical isolates overall; assay type: cell-based; conditions: MBC = lowest concentration killing 100% of the bacteria
Experimental: The MBC test allows determination of the minimum concentration of an agent necessary to achieve a bactericidal effect. The MBC was determined once the MIC was determined previously. To perform the MBC, the dilution representing the MIC and at least two of the more concentrated test product dilutions were plated and enumerated to determine viable CFU/ml. […] NTM clinical isolates used for this study were isolated from patients. In total, there were 18 isolates (in addition to the control strain): mycobacterium avium (x4 isolates), mycobacterium intracellulare (x4), mycobacterium chimaera (x3), mycobacterium kansasii (x2), mycobacterium ulcerans (x2), mycobacterium simiae (x2) and mycobacterium marinum (x1). […] MBC was considered the lowest concentration at which the bedaquiline kills 100% of the bacteria.

M. smegmatis = assay: Bedaquiline MIC, M. smegmatis; assay type: cell-based
Mycobacterium simiae = assay: REMA MIC and MBC, M. simiae; assay type: cell-based; conditions: M. simiae clinical isolates (×2), one line per isolate; for MIC: REMA
[3] = test system: Mycobacterium intracellulare; assay: REMA MIC and MBC, M. intracellulare; assay type: cell-based; conditions: M. intracellulare clinical isolates (×4), one line per isolate; for MIC: REMA
[4] = test system: other mycobacterial species; assay: organism not typed; assay type: cell-based
M. bovis = assay: microbe, parasite or virus in culture; assay type: cell-based; conditions: Mycobacterium tuberculosis variant bovis, read-out: MIC Median
Mycobacterium chimaera = assay: REMA MIC and MBC, M. chimaera; assay type: cell-based; conditions: Mycobacterium intracellulare, M. chimaera clinical isolates (×3), one line per isolate; for MIC: REMA
M. abscessus = assay: Bedaquiline MIC, M. abscessus; assay type: cell-based; conditions: Mycobacteroides abscessus
Mycobacterium xenopi = assay: REMA MIC, control strain; assay type: cell-based; conditions: 168 h, control strain M. xenopi (×1), 7H9, 7 days
[5] = in vivo; cited from earlier work
Mycobacterium marinum = assay: REMA MIC and MBC, M. marinum; assay type: cell-based
M. ulcerans = assay: Bedaquiline MIC, M. ulcerans; assay type: cell-based; conditions: Mycobacterium ulcerans
M. marinum = assay: Bedaquiline MIC, M. marinum; assay type: cell-based; conditions: Mycobacterium marinum, n=1, read-out: MIC Median

COc1nc2ccc(Br)cc2cc1[C@@H](c1ccccc1)[C@@](O)(CCN(C)C)c1cccc2ccccc12 [Bedaquiline, (alpha S, beta R)-6-bromo-alpha-[2-(dimethylamino)ethyl]-2-methoxy-alpha-1-naphthalenyl-beta-phenyl-3-quinolineethanol]
MIC (M. fortuitum; Mycolicibacterium fortuitum, n=5, read-out: MIC Median): 0.01 µg/mL (≈ 0.018 µM) | MIC range (M. fortuitum; n=5): 0.007 to 0.010 µg/mL | MBC (Mycobacterium avium): 1 µg/mL (≈ 1.8 µM) | MIC (Mycobacterium avium): 0.015 µg/mL (≈ 0.027 µM) | MIC (Mycobacterium avium; read-out: MIC): 0.007 µg/mL (≈ 0.0126 µM) | MIC (Mycobacterium kansasii): 0.015 µg/mL (≈ 0.027 µM) | MIC ([1]; Mycobacterium avium, n=7, read-out: MIC Median): 0.01 µg/mL (≈ 0.018 µM) | MIC range ([1]; n=7): 0.007 to 0.010 µg/mL | MIC (M. kansasii): 0.003 µg/mL (≈ 0.0054 µM) | bactericidal activity [2]: bactericidal activity for the majority of clinical isolates tested | MIC (M. smegmatis; Mycolicibacterium smegmatis, n=7, read-out: MIC Median): 0.007 µg/mL (≈ 0.0126 µM) | MIC range (M. smegmatis; n=7): 0.003 to 0.10 µg/mL | MBC (Mycobacterium simiae): 1 µg/mL (≈ 1.8 µM) | MIC (Mycobacterium simiae): 0.015 µg/mL (≈ 0.027 µM) | MIC (Mycobacterium simiae; read-out: MIC): 0.03 µg/mL (≈ 0.054 µM) | MBC [3]: 2 µg/mL (≈ 3.6 µM) | MIC [3]: 0.015 µg/mL (≈ 0.027 µM) | MIC ([3]; read-out: MIC): 0.007 µg/mL (≈ 0.0126 µM) | MIC [4]: < 0.1 µg/mL | MIC (M. bovis): 0.003 µg/mL (≈ 0.0054 µM) | MBC (Mycobacterium chimaera): 1 µg/mL (≈ 1.8 µM) | MIC (Mycobacterium chimaera): 0.015 µg/mL (≈ 0.027 µM) | MIC (Mycobacterium chimaera; read-out: MIC): 0.007 µg/mL (≈ 0.0126 µM) | MIC (M. abscessus; 1 isolate of M. abscessus, read-out: MIC): 0.25 µg/mL (≈ 0.45 µM) | MIC (M. abscessus; M. abscessus, n=1, read-out: MIC Median): 0.25 µg/mL (≈ 0.45 µM) | MIC (Mycobacterium xenopi): > 2 µg/mL | improvement of bioavailability with food [5]: approximately 2 fold | MIC (Mycobacterium marinum): 0.015 µg/mL (≈ 0.027 µM) | MBC (Mycobacterium marinum; M. marinum clinical isolate (×1)): 2 µg/mL (≈ 3.6 µM) | MIC (M. ulcerans; 1 isolate of M. ulcerans, read-out: MIC): 0.5 µg/mL (≈ 0.9 µM) | MIC (M. ulcerans; M. ulcerans, n=1, read-out: MIC Median): 0.5 µg/mL (≈ 0.9 µM) | MIC (M. marinum): 0.003 µg/mL (≈ 0.0054 µM)
